# Results reported in patent publication US8614068B2, “Process for producing hepcidin” (Hellenic Pasteur Institute, priority 2007, dated 2013).
# Ends that are not written are not given here.
# Columns and labels:
# TfR1 = assay: Western blot of TfR1 expression in macrophages; type: cell-based, murine; settings: RAW 264.7, 10 μM, 4 h at 37° C.
# Procedure: (§1) A, RAW 264.7 macrophages were treated with 11 μM and 10 μM of synthetic hepcidin-25 (having the sequence of SEQ ID NO. 2) and Hep-25His (having the sequence of SEQ ID NO. 6) for 4 h at 37° C. or with PBS as negative control. Cell lysates were subjected to 8% SDS PAGE and Western Blot with antibodies against TfR1, Ferroportin and actin as loading control. B, The signal density of ferroportin, TfR1 and actin protein bands from two independent experiments were quantified by densitometry and their intensity relative to actin was calculated. […] Hep25-His, negative peptide and PBS was incubated with Raw 264.7 macrophages, followed by cross-linking with DSS. Cell lysates were incubated with Ni2-NTA and eluates were analyzed by Western blot using anti-FPN1 Ab. […] HEK293-Fpn cells were induced with ponasterone for 24 h and then treated with Hep25-His or synthetic hepcidin 25 (s. Hep25) for 3 h. Fluorescence was visualized with a Leica TCS confocal microscope.
# Western blotting—1×10^6 cells (RAW 264.7, THP-1 or J774) were plated in […] plates and after 12-20 h cells were treated with hepcidins in serum-free DMEM for 4 h, at 37° C. Afterwards, cells were re-suspended in lysis buffer (1% Triton, 25 mM Hepes pH 7.4, 150 mM NaCl, 10% Glycerol, 5 mM EDTA, 0.5 mM PMSF, protein inhibitors (Roche, Mannheim, Germany) and quantified by Bradford assay (Biorad, Hercules, Calif.). 30 μg of cell lysate was analyzed on 8% SDS-PAGE. Proteins were transferred to Hybond C nitrocellulose membrane (Amersham Biosciences, Piscataway, N.J.) and the membranes were incubated with the primary antibodies rabbit anti-ferroportin (Alpha Diagnostics, San Antonio, Tex.), mouse anti-TfR1 (Zymed, Invitrogen, Carlsbad, Calif.) and mouse anti-β actin (Santa Cruz Biotech, Santa Cruz, Calif.), in a dilution of 1:1000, overnight at 4° C. […] Specific signal was detected with a chemiluminescence assay kit (ECL, Amersham Biosciences, Piscataway, N.J.). The bands were quantified by densitometry using the Quantity-One (Biorad, Hercules, Calif.) software. […]
# bacteria ML35p = settings: at 30 μM concentration; cited from earlier work
# ferroportin (FPN1) = biological target: T1, ferroportin (FPN1) (Mus musculus, UniProt Q9JHI9); assay: Western blot of ferroportin expression in macrophages; type: cell-based, murine; settings: data not shown
# T1 construct: endogenous in cells; host or cells: RAW 264.7 murine macrophages
# T1 sequence (Q9JHI9 1-570): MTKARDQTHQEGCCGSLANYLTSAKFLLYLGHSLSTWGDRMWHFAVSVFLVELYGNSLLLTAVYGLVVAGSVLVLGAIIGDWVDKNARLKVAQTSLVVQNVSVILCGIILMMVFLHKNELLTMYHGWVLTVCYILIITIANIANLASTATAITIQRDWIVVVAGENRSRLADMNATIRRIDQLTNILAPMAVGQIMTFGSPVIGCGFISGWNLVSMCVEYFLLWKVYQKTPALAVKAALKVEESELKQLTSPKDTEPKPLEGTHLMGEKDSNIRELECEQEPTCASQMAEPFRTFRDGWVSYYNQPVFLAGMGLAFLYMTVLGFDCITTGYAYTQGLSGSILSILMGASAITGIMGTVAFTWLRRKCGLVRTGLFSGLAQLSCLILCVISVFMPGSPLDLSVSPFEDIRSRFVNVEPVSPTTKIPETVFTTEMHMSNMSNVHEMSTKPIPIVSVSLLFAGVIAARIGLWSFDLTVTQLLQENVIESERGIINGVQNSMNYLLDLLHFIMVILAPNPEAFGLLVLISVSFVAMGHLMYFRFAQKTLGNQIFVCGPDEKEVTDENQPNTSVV
# Procedure: as §1
# Western blotting—1×10^6 cells (RAW 264.7, THP-1 or J774) were plated in […] plates and after 12-20 h cells were treated with hepcidins in serum-free DMEM for 4 h, at 37° C. Afterwards, cells were re-suspended in lysis buffer (1% Triton, 25 mM Hepes pH 7.4, 150 mM NaCl, 10% Glycerol, 5 mM EDTA, 0.5 mM PMSF, protein inhibitors (Roche, Mannheim, Germany) and quantified by Bradford assay (Biorad, Hercules, Calif.). 30 μg of cell lysate was analyzed on 8% SDS-PAGE. Proteins were transferred to Hybond C nitrocellulose membrane (Amersham Biosciences, Piscataway, N.J.) and the membranes were incubated with the primary antibodies rabbit anti-ferroportin (Alpha Diagnostics, San Antonio, Tex.), mouse anti-TfR1 (Zymed, Invitrogen, Carlsbad, Calif.) and mouse anti-β actin (Santa Cruz Biotech, Santa Cruz, Calif.), in a dilution of 1:1000, overnight at 4° C. After washing, the membranes were incubated with anti-rabbit and anti-mouse secondary antibodies conjugated with HRP, in a dilution of 1:5000 (DakoCytomation, Carpinteria, Calif.), for 1 h at room temperature. Specific signal was detected with a chemiluminescence assay kit (ECL, Amersham Biosciences, Piscataway, N.J.). The bands were quantified by densitometry using the Quantity-One (Biorad, Hercules, Calif.) software. Data are shown as means±SD. Statistical analysis was performed by student t-Test.
# Procedure for E. coli strain ML35: Antimicrobial activity of recombinant tagged hepcidins. E. coli strain ML35 was subjected to CFU assay in order to determine the antimicrobial activity of synthetic hepcidin 25 (s. Hep25) having the sequence os SEQ ID NO. 2, Hep-25His having the sequence of SEQ ID NO. 6, Hep-25MycHis having the sequence of SEQ ID NO. 8, Hep-20MycHis having the sequence of SEQ ID NO. 7 and negative peptide having the sequence SEQ ID NO. 9 at the concentrations indicated for 2 h at 37° C. Sodium phosphate buffer was used as negative control.
# Antimicrobial assay—All purified recombinant hepcidins were tested for antibacterial activity against E. coli ML35 and BL21(DE) is a CFU assay (Porter E. M., van Dam E., Valore E. V., Ganz T., Broad-spectrum antimicrobial activity of human intestinal defensin 5, Infect. Immun. 65 (1997) 2396-2401.). Bacterial cell cultures were grown to OD600=0.2 (5×10^7 cfu/ml) and resuspended to a final concentration of 10^6 cfu/ml in 20mM sodium phosphate buffer, pH7.4. Various concentrations of peptides were added to a final volume of 100 μl and after incubation for 2 h at 37° C., surviving cells were plated in triplicates to LB/agar plates.
# Antimicrobial activity of recombinant hepcidins—The colony forming unit assay (E. M. Porter, E. van Dam, E. V. Valore, T. Ganz, Broad-spectrum antimicrobial activity of human intestinal defensin 5, Infect. Immun. 65 (1997) 2396-2401) was used to determine the antimicrobial activity of the purified recombinant hepcidin forms against the E. coli strain, ML35. […] Surviving microbes were counted following incubation with various concentrations of recombinant hepcidin preparations, synthetic hepcidin or negative peptide for 2 h at 37° C.
compound,measurement,setting,value
"CC[C@H](C)[C@@H]1NC(=O)[C@@H](NC(=O)[C@@H](NC(=O)[C@@H]2CCCN2C(=O)[C@H](Cc2ccccc2)NC(=O)[C@H](Cc2c[nH]cn2)NC(=O)[C@@H](NC(=O)[C@@H](N)CC(=O)O)[C@@H](C)O)[C@@H](C)CC)CSSC[C@@H](C(=O)N[C@@H](CCCCN)C(=O)N[C@H](C(=O)O)[C@@H](C)O)NC(=O)[C@@H]2CSSC[C@H](NC(=O)[C@H](Cc3ccccc3)NC1=O)C(=O)N[C@H]1CSSC[C@H](NC(=O)[C@H](CCCCN)NC(=O)[C@H](CO)NC(=O)[C@H](CCCNC(=N)N)NC(=O)[C@H](Cc3c[nH]cn3)NC(=O)[C@@H]3CSSC[C@H](NC(=O)CNC1=O)C(=O)N3)C(=O)NCC(=O)N[C@@H](CCSC)C(=O)N2 [synthetic hepcidin 25, hepcidin 25, reference compound]",IC50,"E. coli strain ML35; ML35, 2 h",9 µM
same,reduction of TfR1 in comparison to untreated cells,TfR1,37%±6
"hep20: hepcidin 20 as tested by Park et al. 2001 (ICIFCCGCCHRSKCGMCCKT; ends and bridges not checked; cysteine pairing not given here; UniProt P81172 65-84, looked up)",reduction of surviving bacteria ML35p,bacteria ML35p,1000 fold
"hep25: hepcidin 25 as tested by Park et al. 2001 (natural, isolated from urine, or synthetic) (DTHFPICIFCCGCCHRSKCGMCCKT; ends and bridges not checked; cysteine pairing not given here; UniProt P81172 60-84, looked up)",reduction of surviving bacteria ML35p,bacteria ML35p,1000 fold
hepcidin-20 (ICIFCCGCCHRSKCGMCCKT; listed as Homo sapiens),concentration at which bactericidal,"E. coli strain ML35; CFU assay, 2 h at 37° C., data not shown",higher than 10 mM
oligomeric fraction of Hep25-His: oligomer peak of Ni-NTA purified Hep-25His from size exclusion chromatography,effect on cellular iron metabolism,ferroportin (FPN1),no effect
